Columns and labels:
[1] = molecular target: T1, Mer (Homo sapiens, UniProt Q12866); experiment: Mer autophosphorylation ELISA in transient transfected 293A cells; format: cell-based; settings: Table 3 Cellular Activities; MERTK-transfected 293A cells, phospho-Mer ELISA
T1 construct: host or cells: 293A cells (Thermo Fisher #R70507)
T1 sequence (Q12866 21-999): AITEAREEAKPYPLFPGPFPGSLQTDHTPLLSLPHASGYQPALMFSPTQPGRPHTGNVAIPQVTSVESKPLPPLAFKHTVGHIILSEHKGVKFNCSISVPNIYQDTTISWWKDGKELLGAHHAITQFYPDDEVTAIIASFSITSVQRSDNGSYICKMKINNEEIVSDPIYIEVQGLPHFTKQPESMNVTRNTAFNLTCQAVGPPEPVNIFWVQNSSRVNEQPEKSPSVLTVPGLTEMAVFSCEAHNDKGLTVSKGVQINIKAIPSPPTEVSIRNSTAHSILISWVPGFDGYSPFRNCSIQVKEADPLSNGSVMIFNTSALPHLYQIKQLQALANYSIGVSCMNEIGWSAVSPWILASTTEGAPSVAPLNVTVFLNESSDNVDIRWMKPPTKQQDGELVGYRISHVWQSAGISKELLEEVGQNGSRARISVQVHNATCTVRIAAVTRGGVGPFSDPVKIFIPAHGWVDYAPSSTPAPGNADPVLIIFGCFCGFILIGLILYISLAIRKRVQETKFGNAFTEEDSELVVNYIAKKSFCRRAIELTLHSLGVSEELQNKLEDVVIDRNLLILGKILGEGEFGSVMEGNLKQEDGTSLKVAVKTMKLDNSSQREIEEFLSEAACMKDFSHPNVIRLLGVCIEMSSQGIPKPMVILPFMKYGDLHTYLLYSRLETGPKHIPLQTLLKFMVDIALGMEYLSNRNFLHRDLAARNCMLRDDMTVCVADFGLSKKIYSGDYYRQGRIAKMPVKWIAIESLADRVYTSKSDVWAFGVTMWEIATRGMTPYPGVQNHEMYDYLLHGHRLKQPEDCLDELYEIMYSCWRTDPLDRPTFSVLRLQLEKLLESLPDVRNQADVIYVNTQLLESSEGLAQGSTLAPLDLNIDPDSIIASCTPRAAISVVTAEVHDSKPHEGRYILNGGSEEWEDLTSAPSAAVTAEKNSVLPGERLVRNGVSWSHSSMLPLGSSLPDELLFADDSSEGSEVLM
How it was run: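 293A cells transiently transfected with human MERTK DNA, replated after 24 h, then treated 1 h with 8-point compound dilutions in serum-free medium (0.3% DMSO). Lysates assayed by phospho-Mer sandwich ELISA against phospho-Mer standard; DMSO = 100%, reference inhibitor = 0% activity; IC50 by 4-parameter logistic fit.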

[2] = molecular target: Met (Homo sapiens, UniProt P08581); experiment: Met autophosphorylation ELISA in PC-3 cells; format: cell-based; set-up: endogenous in cells; host or cells: PC-3 prostate cancer cells (ATCC #CRL-1435); settings: Table 3 Cellular Activities, HGF-stimulated, phospho-Met ELISA, read-out: c-Met IC50
How it was run: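 Serum-starved (3 h) PC-3 cells pre-incubated 1 h with compound (8-point dose curve, 0.3% DMSO), then stimulated with 100 ng/mL recombinant human HGF for 10 min. Lysate phospho-Met (panTyr) measured by sandwich ELISA; IC50 from 4-parameter logistic fit, normalised to DMSO (100%) and reference-inhibitor (0%) controls.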

Met, sequence (P08581 25-1390): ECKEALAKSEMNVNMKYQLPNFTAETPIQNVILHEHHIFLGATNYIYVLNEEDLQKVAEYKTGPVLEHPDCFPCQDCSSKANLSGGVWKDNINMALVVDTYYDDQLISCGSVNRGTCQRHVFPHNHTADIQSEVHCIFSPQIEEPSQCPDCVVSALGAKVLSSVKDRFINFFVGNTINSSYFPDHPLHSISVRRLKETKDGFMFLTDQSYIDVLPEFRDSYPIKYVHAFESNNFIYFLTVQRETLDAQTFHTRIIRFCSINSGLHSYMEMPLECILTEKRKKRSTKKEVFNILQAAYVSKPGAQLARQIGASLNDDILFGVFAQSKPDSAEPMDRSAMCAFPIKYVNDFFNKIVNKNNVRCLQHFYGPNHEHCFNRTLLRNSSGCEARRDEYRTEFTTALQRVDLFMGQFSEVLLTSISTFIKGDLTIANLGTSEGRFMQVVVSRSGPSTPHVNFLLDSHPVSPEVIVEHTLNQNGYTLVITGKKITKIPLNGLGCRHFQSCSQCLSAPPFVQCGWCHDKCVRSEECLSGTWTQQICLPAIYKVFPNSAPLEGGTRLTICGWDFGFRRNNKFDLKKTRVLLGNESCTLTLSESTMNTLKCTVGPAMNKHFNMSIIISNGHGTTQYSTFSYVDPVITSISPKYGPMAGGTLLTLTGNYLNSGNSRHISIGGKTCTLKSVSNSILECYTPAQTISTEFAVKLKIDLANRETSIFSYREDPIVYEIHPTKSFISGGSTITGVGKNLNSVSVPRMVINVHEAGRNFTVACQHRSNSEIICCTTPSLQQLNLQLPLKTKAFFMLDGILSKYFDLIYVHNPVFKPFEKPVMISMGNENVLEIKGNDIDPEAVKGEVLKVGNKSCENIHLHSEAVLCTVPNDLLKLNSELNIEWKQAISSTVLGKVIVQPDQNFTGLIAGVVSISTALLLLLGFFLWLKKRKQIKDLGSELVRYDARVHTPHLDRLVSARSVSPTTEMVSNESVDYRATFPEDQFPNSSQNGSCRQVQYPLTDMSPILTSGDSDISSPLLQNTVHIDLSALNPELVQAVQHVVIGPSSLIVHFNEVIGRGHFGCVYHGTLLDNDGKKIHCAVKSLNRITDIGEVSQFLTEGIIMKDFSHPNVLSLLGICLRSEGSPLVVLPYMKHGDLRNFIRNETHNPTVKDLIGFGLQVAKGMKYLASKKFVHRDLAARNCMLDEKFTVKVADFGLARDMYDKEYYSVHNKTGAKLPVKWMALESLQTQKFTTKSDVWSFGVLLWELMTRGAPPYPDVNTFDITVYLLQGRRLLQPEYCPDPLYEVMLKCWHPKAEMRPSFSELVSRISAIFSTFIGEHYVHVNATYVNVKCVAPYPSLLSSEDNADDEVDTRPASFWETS

Row | SMILES | IC50 [1] [nM] | IC50 [2] [nM]
1 | COc1cc2nccc(Oc3ccc(NC(=O)c4c(C)nc(C)c(-c5sccc5C)c4O)cc3F)c2nc1OC [Compound 139, N-[4-[(6,7-Dimethoxy-1,5-naphthyridin-4-yl)oxy]-3-fluorophenyl]-4-hydroxy-2,6-dimethyl-5-(3-methylthiophen-2-yl)pyridine-3-carboxamide] | ≤ 100 | ≤ 100
2 | COc1cc2nccc(Oc3ccc(NC(=O)c4cnc(C)c(-c5ccc(C)s5)c4O)cc3F)c2nc1OC [Compound 94, N-[4-[(6,7-Dimethoxy-1,5-naphthyridin-4-yl)oxy]-3-fluoro-phenyl]-4-hydroxy-6-methyl-5-(5-methyl-2-thienyl) pyridine-3-carboxamide] | ≤ 100 | ≤ 100
3 | COc1cc2nccc(Oc3ccc(NC(=O)c4c(C)ncc(-c5cccs5)c4O)cc3F)c2nc1OC [Compound 123, N-[4-[(6,7-Dimethoxy-1,5-naphthyridin-4-yl)oxy]-3-fluorophenyl]-4-hydroxy-2-methyl-5-thiophen-2-ylpyridine-3-carboxamide] | ≤ 100 | ≤ 100
